From patent publication US20230000894A1, “TREATING MITOCHONDRIAL DNA DEPLETION DISORDERS” (MITORAINBOW THERAPEUTICS, INC., priority 2019, published 2023)

Key:
[1] = Systemic exposure of dC and dT after oral dCMP+dTMP vs intravenous dC(P2)dT (Example 1); type: in vivo; conditions: for metabolism in vivo (detectability of administered labeled analyte in plasma) / higher oral dose needed to deliver comparable plasma exposure of the corresponding nucleoside compared with intravenous dC(P2)dT: in vivo
Experimental: The systemic exposure of two mononucleotides (dCMP and dTMP) and their corresponding mononucleosides (dC and dT) following oral dosing of two mononucleotides (dCMP & dTMP) vs. intravenous dosing of a dinucleotide (dC(P2)dT) was determined. Test articles were prepared as follows:
Unlabeled test articles: dC=Deoxycytidine (nucleoside) dT=Deoxythymidine (nucleoside) dCMP=Deoxycytidine monophosphate (mononucleotide) dTMP=Deoxythymidine monophosphate (mononucleotide) dC(P2)dT or dT(P2)dC=Deoxycytidine-deoxythymidine diphosphate (dinucleotide) Labeled test articles: dC*=^15N3 labeled dC (labeled nucleoside) dT**=^13C10 and ^15N2 labeled dT (labeled nucleoside) The corresponding labeled nucleotides are dC*MP and dT**MP The corresponding labeled dinucleotide is dC*(P2)dT** or dT**(P2)dC*.
The nucleosides (dC and dT) and their corresponding monophosphate nucleotides (dCMP and dTMP) are naturally produced in the body. In order to differentiate naturally occurring vs exogenously administered dC/dT and dCMP/dTMP, a mixture of labeled dC*MP/dT**MP and unlabeled dCMP/dTMP was dosed via oral route, and a mixture of labeled dC*(P2)dT** and unlabeled dC(P2)dT via I.V. route. The labeled test articles served as tracers for the determination of systemic levels of exogenous dC/dT and dCMP/dTMP following dosing.
Plasma samples were then analyzed for the following analytes: dT**, dC*, dT**MP, dC*MP, and dC*(P2)dT**.
To correct for total TA (labeled+unlabeled) administered, the plasma levels of labeled analytes were multiplied by 10 and 5 for the P.O. and I.V. treatment groups, respectively. In addition, the total TA dose administered by P.O route was 1000 mg/kg (900 mg/kg unlabeled+100 mg/kg labeled) and 10 mg/kg (8 mg/kg unlabeled and 2 mg/kg labeled) for P.O. and I.V. treatment groups, respectively. To normalize by unit dose of TA administered the plasma levels of analytes were divided by 1000 and 10 for P.O. and I.V. treatment groups, respectively. The results of the label-corrected and dose-normalized levels of dT and dC for P.O. and I.V. routes of administration are shown in FIG. 2.
The differences in the AUC0-24h for I.V. vs. P.O. for both analytes are statistically different (p<0.01, t-test). The ratios of I.V./P.O. AUC(0-24h)'s are approximately 350 for dT and […].

[2] = Systemic exposure of dC and dT after a single I.V. vs one and two S.C. injections of dC(P2)dT (Example 2); type: in vivo; conditions: rats, 10 mg/kg total per dose (2 labeled + 8 unlabeled), initial 24 h post-dose
Experimental: The systemic exposure of dC and dT following a single I.V. injection of dC(P2)dT vs one and two subcutaneous (S.C.) injections of dC(P2)dT was compared, where the second S.C. injection is administered 24 h after the first.
Plasma levels of label-normalized dT and dC levels following a single I.V. and one and two S.C. administrations of labeled and unlabeled dC(P2)dT groups are shown in FIG. 4.

Molecule	metabolism in vivo (detectability of administered labeled analyte in plasma) [1]	higher oral dose needed to deliver comparable plasma exposure of the corresponding nucleoside compared with intravenous dC(P2)dT [1]	other results
Nc1ccn([C@H]2C[C@H](O)[C@@H](COP(=O)(O)O)O2)c(=O)n1 [dCMP, Deoxycytidine monophosphate]		approximately 110 fold	
Nc1ccn([C@H]2C[C@H](O)[C@@H](COP(=O)(O)O)O2)c(=O)n1 [dC*MP]	rapid metabolism		
Deoxycytidine-deoxythymidine diphosphate [dC(P2)dT]			ratio of plasma AUC0-24h I.V. vs P.O. for dC ([1]; label-corrected, dose-normalized total dC in plasma, I.V. dC(P2)dT 10 mg/kg total vs P.O. dCMP+dTMP 1000 mg/kg total, p<0.01, t-test): ~110 fold; ratio of plasma AUC0-24h I.V. vs P.O. for dT ([1]; label-corrected, dose-normalized total dT in plasma, I.V. dC(P2)dT 10 mg/kg total vs P.O. dCMP+dTMP 1000 mg/kg total, p<0.01, t-test): approximately 350 fold; mean AUC0-24h of dT and dC in plasma, I.V. vs one and two S.C. administrations [2]: not statistically different

More lines, main results first:

metabolism in vivo (detectability of administered labeled analyte in plasma) [1]	higher oral dose needed to deliver comparable plasma exposure of the corresponding nucleoside compared with intravenous dC(P2)dT [1]	Molecule	other results
rapid metabolism		Cc1cn([C@H]2C[C@H](O)[C@@H](COP(=O)(O)O)O2)c(=O)[nH]c1=O [dT**MP]	
	approximately 350 fold	Cc1cn([C@H]2C[C@H](O)[C@@H](COP(=O)(O)O)O2)c(=O)[nH]c1=O [dTMP, Deoxythymidine monophosphate]	
